Measurements: publication PMC12077799, “Fragment-based drug discovery for transthyretin kinetic stabilisers using a novel capillary zone electrophoresis method” (PLOS One, 2025)
Read-outs that look alike come from different tables or passages of the source.

Assays:
[1] = biological target: T1, Human transthyretin (TTR) thyroxine binding sites (Homo sapiens, UniProt P02766); assay: TTR CZE Free Probe Peak Height Restoration (FPPHR) assay, 8-ANS displacement; settings: for change of free 8-ANS peak height with compound in the Running Buffer: in words, concentrations (e.g. Tafamidis 10 µM, Diphenylamine 250 μM, Verapamil 300 µM, Acetazolamide 500 µM); for FPPHR % at 50 μM: compound 50 μM in Running Buffer; for FPPHR % at 50 μM / FPPHR % tested at 10 µM / FPPHR % at 100 μM: 10% minimum for a binder; for FPPHR % tested at 10 µM: compound 10 µM in Running Buffer; for FPPHR % at 100 μM: compound 100 μM in Running Buffer
T1 construct: purchased SCIPAC (Sittingbourne, Kent, UK) P171-1
Method: CZE assays development and fragment screening were performed on a Beckman P/ACE MDQ capillary electrophoresis system (Beckman Coulter Inc., Brea, CA) operated by 32 Karat™ software. All capillaries (Polymicro Technologies, Phoenix, AZ) used were internally coated with polyvinyl alcohol and of around 30 cm in length, 75 microns in internal diameter. Capillary temperature was maintained at 20 °C by recirculating fluorinated fluid coolant during electrophoresis. Sample trays and buffer trays temperature were maintained at 4°C and ambient respectively. For every electrophoretic run, the capillary was pressure rinsed and prefilled with electrophoresis buffer also known as background electrolyte (termed as Running Buffer hereafter) before injection. After each electrophoretic run, the capillary was rinsed with Running Buffer and H2O by pressure (20 psi for 1 minute). Three Running Buffers (RB), A: 20 mM Tris pH 7.5, 1 mM KCl, 1.62 mM NaCl; B: 20 mM HEPES pH 7.0, 2 mM CaCl2 and C: 20 mM HEPES pH 7.0, 2 mM CaCl2, 1% DMSO were used. All CE traces were analysed by 32Karat™ Software with a built-in automatic peak integration algorithm.
Control 1 Inject Buffer (IB) containing 30 μM 8-ANS was prepared by mixing 1 μL of 3 mM 8-ANS DMSO stock with 99 μL of Running Buffer B in a 0.2 mL PCR tube. Control 2 Inject Buffer was prepared by mixing 1μL of 3 mM 8-ANS DMSO stock with 20 μL of 100 μM tetrameric TTR stock in Running Buffer B and 79 μL of Running Buffer B. The final concentrations (f/c) were 8-ANS 30 μM, TTR 20 μM and 1% DMSO v/v.
The maximum Free Probe Peak Height (Control 1 Peak Height) was determined by Outlet Injection (see Fig 1) of Control 1 with an injection pressure of 0.5 psi for 5 seconds (equivalent to ≈ 20–30 nL). An identical injection of Control 2 provides the minimum Free Probe Peak Height (Control 2 Peak Height) enabling calculation of % of bound and unbound, i.e., free 8-ANS. To determine the 8-ANS peak height in Control 1 and Control 2, the capillary was prefilled with Buffer C and electrophoresis carried out at 10 kV (Normal Polarity, Fig 1) with UV monitoring at 230 nm. For displacement analysis, ligand DMSO stock was diluted in Buffer B and used to fill the capillary as the Running Buffer. Electrophoresis commenced after injection of Control 2, thus the injected 8-ANS-TTR complex migrates inside a capillary filled with the test ligand. The observed 8-ANS peak height is defined as Sample Peak Height and the displaced 8-ANS can be calculated as:
\% of Free Probe Peak Height Restoration= Sample Peak Height−Control 2 Peak Height/Control 1 Peak Height−Control 2 Peak Height

[2] = biological target: T2, Human transthyretin (TTR) (Homo sapiens, UniProt P02766); assay: Co-crystallisation of TTR-ligand complex, X-ray hit confirmation; assay type: binding; settings: for ligand electron density, binding sites occupied in co-crystal structure: in words; for Confirmed by X-ray: fragment seen in ligand-omitted difference density at >= 2σ in one or both binding sites, full or partial density
T2 construct: purchased SCIPAC (Sittingbourne, Kent, UK) P171-1
Method: Crystals were grown by vapor diffusion using a published crystallisation cocktail (100 mM HEPES pH 7.5, 200 mM CaCl2, 28% v/v PEG400) at 21 °C [29]. The hanging drop contained 1 μL of crystallisation cocktail, 1 μL of diluted ligand and 1 μL of TTR protein solution (85 μM). […] Crystals were harvested and flash cooled in a N2 cryostream or dipped into liquid ethane without cryoprotectant. Data was collected at Diamond Light Source (Oxon, UK) beamline I24, I04 or I04-1 (Pilatus 6M or ADSC Q315) or the European Synchrotron Radiation Facility (ESRF, Grenoble, France) beamline ID29 (Pilatus 6M-F) or in-house (Bruker X8 Diffractometer with APEXII CCD detector). Crystal unit cell was initially indexed by software MOSFLM [30] and LABELIT [31] within the EDNA [32] automatic data processing workflow. Diffraction image integration was performed by XDS [33] and reflection intensities were scaled by SCALA [34] or by PROTEUM2 if collected in-house. Phases were obtained by molecular replacement method using PHASER [35], 1DVQ from the Protein Data Bank (PDB) was used as the search model. Atomic positions of the initial model were refined by REFMAC5 [36]. Model building and ligand fitting was completed using COOT [37]. Model graphics were generated using CCP4MG [38]. Crystallographic statistics of all structures can be found in S4 Table.

[3] = biological target: T3, TTR in undiluted normal human reference plasma (Homo sapiens, UniProt P02766); assay: 125I-T4 displacement assay in neat normal human plasma; assay type: binding; settings: for IC50: neat normal human plasma, 4-parameter logistic fit
T3 construct: The TTR in plasma was immunoprecipitated by sheep anti-human prealbumin polyclonal antibody; tissue Precision Biologic Inc., Nova Scotia, Canada
Description: The assay was adapted from one described previously. Briefly, test ligand and ^125I-T4 (Perkin Elmer Inc., Waltham, MA) were mixed with undiluted normal human reference plasma (Precision Biologic Inc., Nova Scotia, Canada). The TTR in plasma was immunoprecipitated by sheep anti-human prealbumin polyclonal antibody (The Binding Site Group Ltd., Birmingham, UK). The immunoprecipitate was washed with buffer and their radioactivity measured with a 2470 WIZARD automatic gamma counter (Perkin Elmer Inc., Waltham, MA). […] Percentage of total radioligand binding for samples of different ligand concentration was then calculated as follows: […]
To calculate IC50 values, percentage of total radioligand binding at different concentration points were entered in SigmaPlot™ 11.0. Titration curves were done in triplicates with a minimum of 5 data points fitted by 4-Parameter Logistic Function.

[4] = biological target: T4, TTR (Homo sapiens, UniProt P02766); assay: Isothermal titration calorimetry (ITC); assay type: binding; settings: for Kd: 25 °C, PBS pH 7.8, 3% DMSO
T4 construct: purchased SCIPAC (Sittingbourne, Kent, UK) P171-1
Method: All ITC experiments were conducted on an iTC200 calorimeter (GE Healthcare), and the settings were 25 °C, stir at 1000 RPM, 1–2 μL injection spaced with 100–150 seconds, reference power: 6 μcal/sec. Isotherms were fitted using ORIGIN 7 software (OriginLab, MA, USA). To prepare TTR ITC protein solution (5 mL), purified and freeze-dried human TTR was weighted and dissolved in 310 μL of pure water. The reconstituted protein solution was then desalted by spin column (Bio-Rad, Bio-Gel P6) and the eluted volume was transferred to a 15mL falcon tube. The protein solution was further diluted with 10x Phosphate Buffered Saline (PBS, 500 μL), DMSO (150 μL) and water, (f/c: 4.3 mM Na2HPO4, 137 mM NaCl, 2.7 mM KCl, 1.47 mM KH2PO4, 3% DMSO v/v, TTR 19.35–25 μM, pH 7.8). UV A260/280 was measured to obtain the actual protein concentration using a calculated extinction coefficient of 18450 M^-1 cm^-1. To prepare ligand ITC solution (1 mL), 30 μL of ligand stock in DMSO was diluted with 10x PBS (100 μL) and water (f/c: 4.3 mM Na2HPO4, 137 mM NaCl, 2.7 mM KCl, 1.47 mM KH2PO4, 3% DMSO v/v, Ligand 280–600 μM, pH 7.8).

[5] = N = number of non-hydrogen atoms
[6] = read-out: Mean 125I-T4 IC50 ± SD (N = 3)

Nc1ccccc1S(N)(=O)=O [2-Aminobenzenesulphonamide, reference compound]
change of free 8-ANS peak height with compound in the Running Buffer [1]: changed minimally

Nc1cc(Cl)cc(Cl)c1 [3,5-Dichloroaniline, reference compound]
change of free 8-ANS peak height with compound in the Running Buffer [1]: significant free 8-ANS peak height increase
ligand electron density, binding sites occupied in co-crystal structure [2]: only observed in one site
IC50 [3]: 802 ± 319 µM
125I-T4 displacement at plateau ([3]; neat plasma, exemplary curve): 60%
total radioligand binding at plateau ([3]; neat plasma, exemplary curve): around 40%

Nc1cc(Cl)c(O)c(Cl)c1 [4-Amino-2,6-Dichlorophenol, reference compound]
change of free 8-ANS peak height with compound in the Running Buffer [1]: significant free 8-ANS peak height increase

CC(=O)Nc1nnc(S(N)(=O)=O)s1 [Acetazolamide, reference compound]
change of free 8-ANS peak height with compound in the Running Buffer [1]: changed minimally

Cc1[nH]ncc1-c1ccccc1 [Compound 12T-0222]
FPPHR % at 50 μM [1]: 25.63%

Clc1cc2cc[nH]c2cn1 [Compound 217869]
FPPHR % at 50 μM [1]: 12.83%

c1cc2[nH]ccc2cn1 [Compound 218458]
FPPHR % at 50 μM [1]: 5.03%

Nc1[nH]ncc1-c1ccc(Cl)cc1 [Compound 242212]
FPPHR % at 50 μM [1]: 25.65%

c1cnc2[nH]ccc2c1 [Compound 242506]
FPPHR % at 50 μM [1]: 7.85%

Clc1ccc2c(-c3cc[nH]n3)ccnc2c1 [Compound 63633004]
FPPHR % tested at 10 µM [1]: 22.71% tested at 10 µM

c1ccc2c(-c3nnc4cnccn34)ccnc2c1 [Compound 86471824]
FPPHR % tested at 10 µM [1]: 10.85% tested at 10 µM

COC(=O)c1c[nH]c2ccccc12 [Compound A00010562]
FPPHR % at 50 μM [1]: 16.40%

c1cc2cc[nH]c2cn1 [Compound A00010944]
FPPHR % at 50 μM [1]: 3.73%

Clc1n[nH]c2ccccc12 [Compound A00014954]
FPPHR % at 50 μM [1]: 24.84%

c1ccc(-c2cn[nH]c2)cc1 [Compound Z1013760930]
FPPHR % at 50 μM [1]: 14.93%

c1ccc(Nc2ccccc2)cc1 [Diphenylamine, reference compound]
change of free 8-ANS peak height with compound in the Running Buffer [1]: significant free 8-ANS peak height increase

O=C(O)c1ccccc1Nc1ccccc1 [N-Phenylanthranilic Acid, reference compound]
ligand electron density, binding sites occupied in co-crystal structure [2]: occupied both sites
IC50 [3]: 180 ± 61.8 µM

Nc1[nH]ncc1-c1ccccc1 [OR1969]
FPPHR % at 50 μM [1]: 13.28%

Cc1n[nH]c(Cl)c1-c1cccc2cccnc12 [SEL101928]
Kd ([4]; read-out: ITC Kd1 ± SD (N = 3)): 0.0497 µM
Kd ([4]; read-out: ITC Kd2 ± SD (N = 3)): 0.331 µM
Kd1 LE (Ligand Efficiency, ΔG/N) [4, 5]: 0.59 kcal/mol
Kd2 LE (Ligand Efficiency, ΔG/N) [4, 5]: 0.52 kcal/mol
IC50 [3, 6]: 20.4 ± 4.13 µM

N#Cc1c[nH]c2ccccc12 [SFL000013]
FPPHR % at 50 μM [1]: 18.13%
FPPHR % at 100 μM [1]: 21.53%
FPPHR % at 300 μM ± SD (N = 3) ([1]; fragment 300 μM in Running Buffer, injected 30 μM 8-ANS / 20 μM TTR, hit cut-off 10%): 23.08 ± 6.08%
Confirmed by X-ray [2]: Yes 2 Sites, Full, 9H7G

c1ccc2[nH]ncc2c1 [SFL000101]
FPPHR % at 100 μM [1]: 12.12%

c1ccc2[nH]ccc2c1 [SFL001004]
FPPHR % at 100 μM [1]: 17.18%

c1cncc(-c2nc3ccccc3[nH]2)c1 [SFL001465]
FPPHR % at 100 μM [1]: 6.22%

CN(C)Cc1c[nH]c2ncccc12 [SFL001519]
FPPHR % at 50 μM [1]: 1.88%

c1ccc2nc(-c3cn[nH]c3)ccc2c1 [SFL001536]
FPPHR % at 100 μM [1]: 18.42%

Cc1n[nH]c(N)c1-c1ccccc1 [SFL001561]
Confirmed by X-ray [2]: Yes 9H7J
IC50 [3, 6]: 488 ± 107 µM

Cc1nn(C)c(N)c1-c1ccccc1 [SFL001562]
FPPHR % at 50 μM [1]: 7.42%

c1ncc2[nH]cnc2n1 [SFL001639]
FPPHR % at 100 μM [1]: 5.29%

N#Cc1ncnc2nc[nH]c12 [SFL001640]
FPPHR % at 100 μM [1]: 4.78%

O=C(O)c1ccc2nc(-c3cc(Cl)cc(Cl)c3)oc2c1 [Tafamidis, reference compound]
change of free 8-ANS peak height with compound in the Running Buffer [1]: significant free 8-ANS peak height increase

N[C@@H](Cc1cc(I)c(Oc2cc(I)c(O)c(I)c2)c(I)c1)C(=O)O [Thyroxine T4, reference compound]
change of free 8-ANS peak height with compound in the Running Buffer [1]: significant free 8-ANS peak height increase

COc1ccc(CCN(C)CCCC(C#N)(c2ccc(OC)c(OC)c2)C(C)C)cc1OC (stereo not drawn) [Verapamil, reference compound]
change of free 8-ANS peak height with compound in the Running Buffer [1]: changed minimally
